Reference: patent publication US20070027130A1, “Tricyclic 6-alkylidene-penem beta-lactamase inhibitors and beta-lactam antibiotic combination: a broad spectrum antibiotic” (priority 2005, published 2007)
In brackets after ≈: the same amount, converted by molar mass.

Columns and labels:
Assay in all cases: MIC microbroth dilution
Type in all cases: cell-based
[1] = system: E. coli GC 1499 (TEM-4 + TEM-1); details: Escherichia coli, β-lactamase class A, A (ESBL), MHBII, 35° C. 18 hr, read-out: Minimal Inhibitory Concentration
Outline: (§1)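 MHBII, NCCLS microbroth dilution; 35 C, ambient air, 18-22 hours.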

[2] = system: K. pneumoniae GC 2825 Act 1 + 3 additional; details: Klebsiella pneumoniae, β-lactamase class A, A (ESBL), C, MHBII, 35° C. 18 hr, read-out: Minimal Inhibitory Concentration
Outline: as §1

[3] = system: E. aerogenes GC 7036 TEM-24, Amp C inducable; details: Klebsiella aerogenes, β-lactamase class A (ESBL), MHBII, 35° C. 18 hr, read-out: Minimal Inhibitory Concentration
Outline: as §1

[4] = system: E. cloacae GC 7052 SHV-5, Amp C inducable; details: Enterobacter cloacae, β-lactamase class A (ESBL), MHBII, 35° C. 18 hr, read-out: Minimal Inhibitory Concentration
Outline: as §1

[5] = system: P. aeruginosa PT 9587 PTZ-R; details: Pseudomonas aeruginosa, PT9587PTZR; P. aeruginosa PT 9587, piperacillin-tazobactam-resistant; MHBII, 35° C. 18 hr; read-out: Minimal Inhibitory Concentration
Outline: as §1

E. coli GC 2253 (IRT-2) = details: Escherichia coli, 18 h, read-out: Minimal Inhibitory Concentration
Outline: as §1

[6] = system: P. aeruginosa GC 3153 Inducible AmpC; details: Pseudomonas aeruginosa, β-lactamase class C, MHBII, 35° C. 18 hr, read-out: Minimal Inhibitory Concentration
Outline: as §1

[7] = system: K. pneumoniae GC 2826 Act 1 + 3 additional; details: Klebsiella pneumoniae, β-lactamase class A, A (ESBL), C, MHBII, 35° C. 18 hr, read-out: Minimal Inhibitory Concentration
Outline: as §1

E. coli GC 2804 (imp) = details: Escherichia coli, 18 h, read-out: Minimal Inhibitory Concentration
Outline: as §1

[8] = system: E. coli GC 2017 (TEM-10 + pl 6.3; 8.1); details: Escherichia coli, β-lactamase class A (ESBL), MHBII, 35° C. 18 hr, read-out: Minimal Inhibitory Concentration
Outline: as §1

Q: What does the source list for `CO/N=C(\C(=O)N[C@@H]1C(=O)N2C(C(=O)[O-])=C(C[N+]3(C)CCCC3)CS[C@H]12)c1csc(N)n1` [Cefepime]?
A: MIC [1]: > 16 µg/mL; MIC [2]: 2 µg/mL (≈ 4.16 µM); MIC [3]: 2 µg/mL (≈ 4.16 µM); MIC [4]: 8 µg/mL (≈ 16.6 µM); MIC [5]: 4 µg/mL; MIC (E. coli GC 2253 (IRT-2)): 0.03 µg/mL (≈ 0.0624 µM); MIC [6]: 16 µg/mL (≈ 33.3 µM); MIC [7]: 8 µg/mL (≈ 16.6 µM); MIC (E. coli GC 2804 (imp)): 0.03 µg/mL (≈ 0.0624 µM); MIC [8]: 16 µg/mL (≈ 33.3 µM)
